According to the supplement of paper PMC11451515:

Tested on: SEM cells
Assay: cell viability relative to DMSO control; higher = less cytotoxic
Conditions: 48 h
In short: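 Before seeding, each leukemia line was adapted for at least four passages in each medium. NOMO1 or SEM cells (500 cells/well) and P12-Ichikawa cells (1000 cells/well) went into 1536-well plates at 5 μl, then received library compounds in DMSO by pin dosing across 11 threefold concentrations, 47 μM to 0.79 nM. Readout was CellTiter-Glo One luminescence after 48 h at 37°C, and viability is given as a per-plate percentage of DMSO wells, with cell-free wells as background.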

[1] = HPLM + 10% dialyzed FBS, 0.000781 µM
[2] = HPLM + 10% dialyzed FBS, 0.00234 µM
[3] = HPLM + 10% dialyzed FBS, 0.00702 µM
[4] = HPLM + 10% dialyzed FBS, 0.0211 µM
[5] = HPLM + 10% dialyzed FBS, 0.0632 µM
[6] = HPLM + 10% dialyzed FBS, 0.19 µM
[7] = HPLM + 10% dialyzed FBS, 0.569 µM
[8] = HPLM + 10% dialyzed FBS, 1.71 µM
[9] = HPLM + 10% dialyzed FBS, 5.12 µM
[10] = HPLM + 10% dialyzed FBS, 15.4 µM
[11] = HPLM + 10% dialyzed FBS, 46.1 µM
[12] = RPMI 5 mM glucose + 10% FBS, 0.000781 µM
[13] = RPMI 5 mM glucose + 10% FBS, 0.00234 µM
[14] = RPMI 5 mM glucose + 10% FBS, 0.00702 µM
[15] = RPMI 5 mM glucose + 10% FBS, 0.0211 µM
[16] = RPMI 5 mM glucose + 10% FBS, 0.0632 µM
[17] = RPMI 5 mM glucose + 10% FBS, 0.19 µM
[18] = RPMI 5 mM glucose + 10% FBS, 0.569 µM
[19] = RPMI 5 mM glucose + 10% FBS, 1.71 µM
[20] = RPMI 5 mM glucose + 10% FBS, 5.12 µM
[21] = RPMI 5 mM glucose + 10% FBS, 15.4 µM
[22] = RPMI 5 mM glucose + 10% FBS, 46.1 µM
[23] = RPMI 5 mM glucose + 10% dialyzed FBS, 0.000781 µM
[24] = RPMI 5 mM glucose + 10% dialyzed FBS, 0.00234 µM
[25] = RPMI 5 mM glucose + 10% dialyzed FBS, 0.00702 µM
[26] = RPMI 5 mM glucose + 10% dialyzed FBS, 0.0211 µM
[27] = RPMI 5 mM glucose + 10% dialyzed FBS, 0.0632 µM
[28] = RPMI 5 mM glucose + 10% dialyzed FBS, 0.19 µM
[29] = RPMI 5 mM glucose + 10% dialyzed FBS, 0.569 µM
[30] = RPMI 5 mM glucose + 10% dialyzed FBS, 1.71 µM
[31] = RPMI 5 mM glucose + 10% dialyzed FBS, 5.12 µM
[32] = RPMI 5 mM glucose + 10% dialyzed FBS, 15.4 µM
[33] = RPMI 5 mM glucose + 10% dialyzed FBS, 46.1 µM

C[C@@H](O)[C@@H]1NC(=O)[C@H](CCCCN)NC(=O)[C@@H](Cc2c[nH]c3ccccc23)NC(=O)[C@H](Cc2ccccc2)NC(=O)[C@@H](NC(=O)[C@H](N)Cc2ccccc2)CSSC[C@@H](C(=O)N[C@H](CO)[C@@H](C)O)NC1=O
cell viability [1]: 71.3%
cell viability [2]: 83.6%
cell viability [3]: 87.8%
cell viability [4]: 91%
cell viability [5]: 99%
cell viability [6]: 78.3%
cell viability [7]: 83.4%
cell viability [8]: 91.2%
cell viability [9]: 97.5%
cell viability [10]: 97.7%
cell viability [11]: 84.6%
cell viability [12]: 67.4%
cell viability [13]: 94.4%
cell viability [14]: 83.2%
cell viability [15]: 105%
cell viability [16]: 90.6%
cell viability [17]: 55.5%
cell viability [18]: 82.6%
cell viability [19]: 91.6%
cell viability [20]: 101%
cell viability [21]: 90.4%
cell viability [22]: 70.4%
cell viability [23]: 64.8%
cell viability [24]: 81%
cell viability [25]: 84.5%
cell viability [26]: 86.1%
cell viability [27]: 78.7%
cell viability [28]: 75.1%
cell viability [29]: 81.7%
cell viability [30]: 74.7%
cell viability [31]: 97.1%
cell viability [32]: 85.6%
cell viability [33]: 67.3%

Cc1c(C)c2c(c(C)c1O)CCC(C)(COc1ccc(CC3SC(=O)NC3=O)cc1)O2 (stereo not given)
cell viability [1]: 119%
cell viability [2]: 113%
cell viability [3]: 127%
cell viability [4]: 117%
cell viability [5]: 124%
cell viability [6]: 117%
cell viability [7]: 128%
cell viability [8]: 132%
cell viability [9]: 141%
cell viability [10]: 112%
cell viability [11]: 93.1%
cell viability [23]: 104%
cell viability [24]: 101%
cell viability [25]: 127%
cell viability [26]: 106%
cell viability [27]: 126%
cell viability [28]: 121%
cell viability [29]: 136%
cell viability [30]: 134%
cell viability [31]: 154%
cell viability [32]: 95.4%
cell viability [33]: 84.9%

CNC(=O)Nc1ccc(-c2nc(N3CC4CCC(C3)O4)c3cnn(C4CCC5(CC4)OCCO5)c3n2)cc1
cell viability [1]: 109%
cell viability [2]: 106%
cell viability [3]: 97.8%
cell viability [4]: 83.9%
cell viability [5]: 73.8%
cell viability [6]: 53.6%
cell viability [7]: 58.1%
cell viability [8]: 53%
cell viability [9]: 45.9%
cell viability [10]: 34.3%
cell viability [11]: 36.9%
cell viability [12]: 76.6%
cell viability [13]: 77.9%
cell viability [14]: 65.6%
cell viability [15]: 51%
cell viability [16]: 43.2%
cell viability [17]: 36.8%
cell viability [18]: 40.1%
cell viability [19]: 34%
cell viability [20]: 25.3%
cell viability [21]: 22.9%
cell viability [22]: 14.5%
cell viability [23]: 105%
cell viability [24]: 106%
cell viability [25]: 88.7%
cell viability [26]: 80.7%
cell viability [27]: 71.6%
cell viability [28]: 56.2%
cell viability [29]: 59.4%
cell viability [30]: 53.9%
cell viability [31]: 39.6%
cell viability [32]: 31.3%
cell viability [33]: 41.4%

CN(C)C1=C(Br)C=C(C=C1)C\2NC3=C(\C4=C2C(=O)CC(C)(C)C4)C5=CC=CC=C5C=C3 (stereo not given)
cell viability [1]: 113%
cell viability [2]: 119%
cell viability [3]: 125%
cell viability [4]: 130%
cell viability [5]: 131%
cell viability [6]: 131%
cell viability [7]: 113%
cell viability [8]: 120%
cell viability [9]: 128%
cell viability [10]: 120%
cell viability [11]: 97.8%
cell viability [12]: 105%
cell viability [13]: 115%
cell viability [14]: 137%
cell viability [15]: 121%
cell viability [16]: 132%
cell viability [17]: 123%
cell viability [18]: 107%
cell viability [19]: 131%
cell viability [20]: 116%
cell viability [21]: 109%
cell viability [22]: 100%
cell viability [23]: 93.1%
cell viability [24]: 112%
cell viability [25]: 122%
cell viability [26]: 128%
cell viability [27]: 127%
cell viability [28]: 127%
cell viability [29]: 93.1%
cell viability [30]: 114%
cell viability [31]: 126%
cell viability [32]: 118%
cell viability [33]: 85.4%

Cc1noc(-c2ccc(CSCCC(=O)O)cc2)c1NC(=O)OC(C)c1ccccc1Cl (stereo not given)
cell viability [1]: 95.3%
cell viability [2]: 95.1%
cell viability [3]: 99.2%
cell viability [4]: 89.3%
cell viability [5]: 88.4%
cell viability [6]: 97%
cell viability [7]: 99.7%
cell viability [8]: 89.3%
cell viability [9]: 97.1%
cell viability [10]: 98.7%
cell viability [11]: 95.6%
cell viability [12]: 99.9%
cell viability [13]: 98.8%
cell viability [14]: 82.5%
cell viability [15]: 94.5%
cell viability [16]: 83.9%
cell viability [17]: 100%
cell viability [18]: 96.2%
cell viability [19]: 70.3%
cell viability [20]: 101%
cell viability [21]: 89.7%
cell viability [22]: 81.3%
cell viability [23]: 90%
cell viability [24]: 108%
cell viability [25]: 104%
cell viability [26]: 115%
cell viability [27]: 97%
cell viability [28]: 115%
cell viability [29]: 101%
cell viability [30]: 69.3%
cell viability [31]: 117%
cell viability [32]: 114%
cell viability [33]: 88.3%

C[C@]12CC[C@H]3[C@@H](CCC/4=C/C(=O)CC[C@]34C)[C@@H]1CC[C@@H]2OC(=O)CCC5CCCC5
cell viability [1]: 90%
cell viability [2]: 92.3%
cell viability [3]: 99.1%
cell viability [4]: 102%
cell viability [5]: 104%
cell viability [6]: 99.9%
cell viability [7]: 95.6%
cell viability [8]: 104%
cell viability [9]: 101%
cell viability [10]: 97.1%
cell viability [11]: 111%
cell viability [12]: 99.7%
cell viability [13]: 86.2%
cell viability [14]: 109%
cell viability [15]: 105%
cell viability [16]: 122%
cell viability [17]: 115%
cell viability [18]: 131%
cell viability [19]: 101%
cell viability [20]: 124%
cell viability [21]: 98.8%
cell viability [22]: 94.6%
cell viability [23]: 99.5%
cell viability [24]: 105%
cell viability [25]: 101%
cell viability [26]: 113%
cell viability [27]: 104%
cell viability [28]: 104%
cell viability [29]: 108%
cell viability [30]: 121%
cell viability [31]: 124%
cell viability [32]: 90.6%
cell viability [33]: 109%

NC(=O)NO
cell viability [1]: 83%
cell viability [2]: 79.5%
cell viability [3]: 89.4%
cell viability [4]: 85.6%
cell viability [5]: 93.5%
cell viability [6]: 96.1%
cell viability [7]: 80.1%
cell viability [8]: 75.2%
cell viability [9]: 31.6%
cell viability [10]: 13.8%
cell viability [11]: 2.15%
cell viability [12]: 99.3%
cell viability [13]: 89.3%
cell viability [14]: 96.1%
cell viability [15]: 94.8%
cell viability [16]: 100%
cell viability [17]: 93%
cell viability [18]: 103%
cell viability [19]: 86.1%
cell viability [20]: 37.2%
cell viability [21]: 7.56%
cell viability [22]: 1.61%
cell viability [23]: 77.9%
cell viability [24]: 79.6%
cell viability [25]: 93%
cell viability [26]: 88.4%
cell viability [27]: 96.2%
cell viability [28]: 84.4%
cell viability [29]: 95.5%
cell viability [30]: 87%
cell viability [31]: 32.3%
cell viability [32]: 5.86%
cell viability [33]: 1.96%
